Results from patent publication US12577217B2, “15-PGDH inhibitor” (KYORIN Pharmaceutical Co., Ltd., priority 2019, dated 2026).

Target: T1, recombinant human 15-PGDH (Homo sapiens, UniProt P15428)
T1 construct: purchased R&D Systems
T1 sequence (P15428 1-266): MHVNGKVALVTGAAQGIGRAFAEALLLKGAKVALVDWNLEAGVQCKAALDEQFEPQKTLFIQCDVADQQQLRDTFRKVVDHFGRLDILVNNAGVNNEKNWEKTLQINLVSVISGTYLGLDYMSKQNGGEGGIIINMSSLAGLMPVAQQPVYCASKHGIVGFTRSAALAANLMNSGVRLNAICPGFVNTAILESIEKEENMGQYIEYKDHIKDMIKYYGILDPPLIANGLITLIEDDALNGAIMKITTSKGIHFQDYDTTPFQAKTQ
Experiment: 15-PGDH enzyme inhibition test
Type: biochemical
Details: 4 nM recombinant human 15-PGDH, 30 μM PGE2, 1 mM NAD+, 60 minutes after starting the reaction; read-out: IC50 Value
Procedure, shortened: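 4 nM recombinant human enzyme pre-incubated with compound 12 min at room temperature in 50 mM Tris-HCl pH 8.0 with 0.01% Tween 20 and 0.01% bovine gamma globulin. Reaction started with 30 μM PGE2 and 1 mM NAD+, read after 60 min by fluorescence (ex 340/em 440 nm). IC50 from concentration-response curve.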

SMILES	IC50 [nM]
CN(CC1CCCC1)C(=O)c1cnc2c(c1)OCCN2c1ccn2c(=O)n(C)nc2c1 [Example 17-3]	< 10
CO[C@H]1CCCN(C(=O)c2cnc3c(c2)OCCN3c2ccn3c(=O)n(C)nc3c2)C1 [Example 18-2]	< 10
Cn1nc2cc(N3CCOc4cc(C(O)C5CCC(F)(F)CC5)cnc43)ccn2c1=O (centres unmarked) [Example 19-2]	10 to 100
O=C(c1cnc2c(c1)OCCN2c1ccn2c(=O)n(-c3ccccc3)nc2c1)N1CCCCC1 [Example 21-1, 2-Phenyl-7-(7-(piperidine-1-carbonyl)-2,3-dihydro-4H-pyrido[3,2-b] [1,4]oxazin-4-yl)-[1,2,4]triazolo[4,3-a]pyridin-3 (2H)-one]	< 10
O=C(c1cnc2c(c1)CCCN2c1ccn2c(=O)n(C3CC3)nc2c1)N1CCCCC1 [Example 26-1, 2-Cyclopropyl-7-(6-(piperidine-1-carbonyl)-3,4-dihydro-1,8-naphthylidin-1(2H)-yl)-[1,2,4]triazolo[4,3-a]pyridin-3(2H)-one]	< 10
O=C(c1cnc2c(c1)OCCN2c1ccn2c(=O)n(C3CC3)nc2c1)N1CCCCC1 [Example 26-2]	< 10
O=C(c1cnc2c(c1)OCCN2c1ccn2c(=O)n(Cc3ccnc(Cl)c3)nc2c1)N1CCCCC1 [Example 27-2]	< 10

The remaining lines, values ahead:

IC50 [nM]	SMILES
< 10	CC(C)(O)Cn1nc2cc(N3CCOc4cc(C(=O)N5CCCCC5)cnc43)ccn2c1=O [Example 15-1, 2-(2-Hydroxy-2-methylpropyl)-7-(7-(piperidine-1-carbonyl)-2,3-dihydro-4H-pyrido[3,2-b][1,4]oxazin-4-yl)-[1,2,4]triazolo[4,3-a]pyridin-3(2H)-one]
< 10	CCCN(C)C(=O)c1cnc2c(c1)OCCN2c1ccn2c(=O)n(C)nc2c1 [Example 17-1, N-Methyl-4-(2-methyl-3-oxo-2,3-dihydro-[1,2,4]triazolo[4,3-a]pyridin-7-yl)-N-propyl-3,4-dihydro-2H-pyrido[3,2-b][1,4]oxazine-7-carboxamide]
< 10	CO[C@@H]1CCCN(C(=O)c2cnc3c(c2)OCCN3c2ccn3c(=O)n(C)nc3c2)C1 [Example 18-1, (R)-7-(7-(3-Methoxypiperidine-1-carbonyl)-2,3-dihydro-4H-pyrido[3,2-b] [1,4]oxazin-4-yl)-2-methyl-[1,2,4]triazolo[4,3-a]pyridin-3(2H)-one]
< 10	Cn1nc2cc(N3CCOc4cc(C(O)C5CCCCC5)cnc43)ccn2c1=O (centres unmarked) [Example 19-1, 7-(7-(Cyclohexyl(hydroxy)methyl)-2,3-dihydro-4H-pyrido[3,2-b] [1,4]oxazin-4-yl)-2-methyl-[1,2,4]triazolo[4,3-a]pyridin-3 (2H)-one]
< 10	O=C(O)c1ccc(N2CCOc3cc(C(=O)N4CCCCC4)cnc32)cc1F [Example 20-1, 2-Fluoro-4-(7-(piperidine-1-carbonyl)-2,3-dihydro-4H-pyrido[3,2-b][1,4]oxazin-4-yl)benzoic Acid]
10 to 100	Cn1nc2cc(N3CC(F)(F)COc4cc(C(=O)N5CCCCC5)cnc43)ccn2c1=O [Example 22-1, 7-(3,3-Difluoro-8-(piperidine-1-carbonyl)-3,4-dihydropyrido[3,2-b][1,4]oxazepin-5(2H)-yl)-2-methyl-[1,2,4]triazolo[4,3-a]pyridin-3 (2H)-one]
> 100	Cc1cc(N2CCOc3cc(C(=O)N4CCCCC4)ccc32)n2ncnc2n1 [Example 24-1, (4-(5-Methyl-[1,2,4]triazolo[1,5-a]pyrimidin-7-yl)-3,4-dihydro-2H-benzo[b][1,4]oxazin-7-yl)(piperidin-1-yl)methanone]
10 to 100	Cc1nccc(N2CCOc3cc(C(=O)N4CCC(F)(F)CC4)ccc32)n1 [Example 24-3]
< 10	O=C(c1cnc2c(c1)OCCN2c1ccc2c(c1)CN(CO)C2=O)N1CCC(F)(F)CC1 [Example 25-1, 5-(7-(4,4-Difluoropiperidine-1-carbonyl)-2,3-dihydro-4H-pyrido[3,2-b]oxazin-4-yl)-2-(hydroxymethyl)isoindolin-1-one]
< 10	O=C(c1cnc2c(c1)OCCN2c1ccn2c(=O)n(Cc3ccc(F)cc3)nc2c1)N1CCCCC1 [Example 27-1]
